Laboratory results reported in ChEMBL document CHEMBL3244322, “5-O-Alkylated derivatives of 5-hydroxy-2'-deoxyuridine as potential antiviral agents. Anti-herpes activity of 5-propynyloxy-2'-deoxyuridine” (J Med Chem, 1978).
In brackets after ≈: the same amount, converted by molar mass.

Tested on: Vaccinia virus
Experiment: Antiviral activity against Vaccinia virus infected in primary rabbit kidney cells assessed as inhibition of virus-induced cytopathogenicity
Format: functional
Conditions: Orthopoxvirus vaccinia

SMILES | MIC [µM]
O=c1[nH]c(=O)n([C@H]2C[C@H](O)[C@@H](CO)O2)cc1O | 14 (≈ 3.42 µg/mL)
C#CCOc1cn([C@H]2C[C@H](O)[C@@H](CO)O2)c(=O)[nH]c1=O | 35 (≈ 9.88 µg/mL)
C=CCOc1cn([C@@H]2O[C@H](CO)[C@@H](O)[C@H]2O)c(=O)[nH]c1=O | > 600
C=CCOc1cn([C@H]2C[C@H](O)[C@@H](CO)O2)c(=O)[nH]c1=O | 70 (≈ 19.9 µg/mL)
O=c1[nH]c(=O)n([C@@H]2O[C@H](CO)[C@@H](O)[C@H]2O)cc1OCc1ccccc1 | > 600
O=c1[nH]c(=O)n([C@H]2C[C@H](O)[C@@H](CO)O2)cc1OCc1ccccc1 | > 300
O=c1[nH]c(=O)n([C@@H]2O[C@H](CO)[C@@H](O)[C@H]2O)cc1OCc1ccc([N+](=O)[O-])cc1 | > 600
O=c1[nH]c(=O)n([C@H]2C[C@H](O)[C@@H](CO)O2)cc1OCc1ccc([N+](=O)[O-])cc1 | > 260
Cc1ccc(COc2cn([C@@H]3O[C@H](CO)[C@@H](O)[C@H]3O)c(=O)[nH]c2=O)cc1 | > 600
NC(=O)COc1cn([C@@H]2O[C@H](CO)[C@@H](O)[C@H]2O)c(=O)[nH]c1=O | > 600
NC(=O)COc1cn([C@H]2C[C@H](O)[C@@H](CO)O2)c(=O)[nH]c1=O | 130 (≈ 39.2 µg/mL)
O=C(O)COc1cn([C@H]2C[C@H](O)[C@@H](CO)O2)c(=O)[nH]c1=O | > 600
O=c1[nH]c(=O)n([C@H]2C[C@H](O)[C@@H](CO)O2)cc1I [IDOXURIDINE] | 1.4 (≈ 0.496 µg/mL)
Nc1ncnc2c1ncn2[C@@H]1O[C@H](CO)[C@@H](O)[C@@H]1O [VIDARABINE] | 1.4 (≈ 0.374 µg/mL)
